# Patent publication US9376406B2, “uPAR-uPA interaction inhibitors and methods for treating cancer” (Indiana University Research and Technology Corporation, priority 2011, dated 2016)
# Where two headings read alike, the source gives them in different places.
# Experiments:
# TMD-231 cells = experiment: xenograft mice model of breast cancer metastasis; type: in vivo
# Description: in vivo Efficacy of IPR-803 in xenograft mice model of cancer. Breast Cancer Metastasis. The Example is performed as described in Wang et al. (2011) Virtual Screening Targeting the Urokinase Receptor, Biochemical and Cell-Based Studies, Synthesis, Pharmacokinetic Characterization, and Effect on Breast Tumor Metastasis. J Med Chem In press, the disclosure of which is incorporated herein in its entirety. Briefly, TMD-231 cells are inoculated into the mammary fat pad of female NOD/SCID mice. Dosing is initiated at day 15 post implantation. Animals are randomized and treated with vehicle or with test compound by daily oral gavage at a dose of 200 mg/kg.
# While uPAR's effects on growth are known to be minimal, its role in promoting invasion and metastasis is widely established. To assess the effect of IPR-803 on metastasis, control and experimental animals were sacrificed and organs (lungs) were removed and evaluated for the presence of tumors. The number and size of metastasis in two to five fields per sample were calculated. A score of 4+ was given to a sample with highest metastasis index and relative metastasis in other samples are calculated (i.e., 1+, 2+, 3+) by a sample-blinded pathologist. […] For example, 11 out of 13 untreated mice developed severe (score=3) or marked (score=4) metastasis to the lung. This is compared to only 4 in the treated mice. Among the treated mice, 4 developed moderate metastasis, and another four were scored at 1 or lower, showing mild metastasis to the lungs.
# IPR-803 was administered at 200 mg/kg p.o. to test animals, and conventional evaluation of cancer progression and survival measurements were made. […] It is observed that there is a greater percentage of mild an moderate outcomes in the treatment group compared to the untreated group showing a majority of severe outcomes. In addition, whole animal toxicity was evaluated by periodic measurement of weight change in test animals.
# [1] = system: integrins (phospho p44/42 MAPK, p44/42 MAPK, pSrc Y416, Src, pFAK Y397, FAK); experiment: Integrin signaling by gel electrophoresis; type: cell-based
# [2] = in vivo pharmacokinetics in mice
# Description: in vivo Pharmacokinetics of IPR-803 in mice. Compounds are administered to mice via a single dose of 200 mg/kg by oral gavage using a formulation of saline. Blood ([…]) is taken from the mice at their tails at time intervals of 1, 2, 4, 6, 8 and 10 hours (three time points from each of the 18 mice (21)) post injection. Blood plasma samples are prepared by centrifugation for quantification and HPLC-MS/MS analysis. […] The stability of the compounds in plasma is reflected by the half-life (t1/2). To gain insight into its absorption following oral dosing, intravenous bioavailability of compounds described herein is determined. Compounds are injected intravenously (IV) into the tail vein. Blood plasma samples are prepared from collected blood samples at 5, 10, 20, 45 and 120 minutes (three mice per time point). […] The levels of the compound in tumor tissue remained high even after 10 hours.
# [3] = cellular studies, cytotoxicity of IPR-803; type: cell-based
# uPAR = target: T1, uPAR (Homo sapiens, UniProt Q03405); experiment: Fluorescence polarization, direct binding to uPAR; settings: excitation 530 nm, emission 600 nm
# T1 construct: uPAR comprising amino acids 1-277 was expressed in Drosophila S2 cells; made in house; host or cells: Drosophila S2 cells
# T1 sequence (Q03405 23-299): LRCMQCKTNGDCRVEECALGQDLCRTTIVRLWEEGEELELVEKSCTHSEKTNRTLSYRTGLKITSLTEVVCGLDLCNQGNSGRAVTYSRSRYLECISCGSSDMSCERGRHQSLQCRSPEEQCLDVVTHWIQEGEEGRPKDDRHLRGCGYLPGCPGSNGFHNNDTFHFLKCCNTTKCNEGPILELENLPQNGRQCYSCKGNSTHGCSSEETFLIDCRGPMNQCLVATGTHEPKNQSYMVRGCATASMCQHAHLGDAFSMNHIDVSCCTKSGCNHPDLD
# Description: Fluorescence polarization in the presence and absence of protein and were measured using identical conditions as described above.
# The mP was evaluated in the a presence and absence of competing 10 μM GFD.
# [4] = mouse, plasma, po, 200 mg/kg p.o.
smiles,measurement,setting,value
"O=C(O)c1cccc(Nc2cc(N3CCCCCC3)c3noc4c3c2C(=O)c2ccccc2-4)c1 [IPR-803, 3-((3-(azepan-1-yl)-6-oxo-6H-anthra[1,9-cd]isoxazol-5-yl)amino)benzoic acid]",outcome (cancer progression and survival) compared to vehicle,"TMD-231 cells; 200 mg/kg p.o., n=15",statistically significant (p<0.013) improvement in outcome
same,weight change (whole animal toxicity),"TMD-231 cells; 200 mg/kg p.o., n=15, vs vehicle control",No significant weight change
same,"number of mice scored at 1 or lower, mild metastasis to the lungs",TMD-231 cells; treated mice,four
same,number of mice with moderate metastasis,TMD-231 cells; treated mice,4
same,number of mice with severe (score=3) or marked (score=4) metastasis to the lung,TMD-231 cells; treated mice,4
same,tumor volume,"TMD-231 cells; treated mice, 200 mg/kg daily oral gavage, 33 day study",~693 mm^3
same,effects on tumor size,TMD-231 cells; treated vs untreated,~10%
same,"signaling effect on pathways implicated with growth, such as ERK",[1],does not have a signaling affect
same,Cl/F,[2]; 200 mg/kg p.o.,0.379 L/h
same,level in the primary tumor,"[2]; LC/MS/MS at 1, 2, 4, 6, and 8 hour intervals",~10 µM
same,levels of the compound in tumor tissue,[2]; after 10 hours,remained high
same,bioavailability,"[2]; mouse, plasma, oral, 200 mg/kg, estimated from p.o. and IV data",~4%
same,AUC(0-inf),[2]; [4],13700 ng·h/mL
same,AUC(0-t),[2]; [4],11300 ng·h/mL
same,Tmax,[2]; [4],1 h
same,half-life,[2]; [4],4.7 h
same,Cmax,"[2]; mouse, plasma, po, 200 mg/kg p.o., read-out: Cmax",2600 ng/mL
same,Vd/F,"[2]; mouse, plasma, po, 200 mg/kg p.o., read-out: Vdss/F",2.23 L
same,Cmax,"[2]; mouse, plasma, mice, 200 mg/kg oral gavage, saline, read-out: maximum concentration (Cmax) in plasma",5 µM
same,cytotoxicity,[3],not cytotoxic
same,fluorescence polarization (mP) with increasing uPAR concentration,uPAR,showed a dose response with increasing mP
